In ChEMBL document CHEMBL1122547, “Diastereomeric 6-desoxy-6-spiro-alpha-methylene-gamma-butyrolactone derivatives of naltrexone and oxymorphone. Selective irreversible inhibition of naltrexone binding in an opioid receptor preparation by a conformationally restricted michael acceptor ligand” (J Med Chem, 1984):
Where “and” joins values, the source holds several entries; their conditions need not be identical. Equal values may be shown once.

Key:
[1] = Ratio of IC50(presence of NaCl) to that of IC50(absence of NaCl)
Mus musculus [2] = species: Mus musculus; test: Compound was tested for irreversible inhibition of [3H]- Naltrexone binding with 10 nM naloxone+ 5 nM protection in the presence of NaCl (unwashed); type: functional; parameters: scale not given: the % may be the effect or the level left
Mus musculus [3] = species: Mus musculus; test: Compound was tested for irreversible inhibition of [3H]- Naltrexone binding with 10 nM naloxone+ 5 nM protection in the presence of NaCl (washed); type: functional; parameters: scale not given: the % may be the effect or the level left
Mus musculus [4] = species: Mus musculus; test: Compound was tested for irreversible inhibition of [3H]- Naltrexone binding with 10 nM naloxone+5 nM protection in the presence of NaCl (washed); type: functional; parameters: scale not given: the % may be the effect or the level left

SMILES | Ratio [1] | Control (Mus musculus [2]) | Control (Mus musculus [3]) [%] | Control (Mus musculus [4]) [%]
C=C1CC2(CCC3(O)[C@H]4Cc5ccc(O)c6c5[C@@]3(CCN4CC3CC3)C2O6)OC1=O (stereo in doubt; 5a) [listing 1 of 2 here] | 0.4 |  |  | 
C=C1CC2(CCC3(O)[C@H]4Cc5ccc(O)c6c5[C@@]3(CCN4C)C2O6)OC1=O (stereo in doubt; 5b) | 7.1 |  |  | 
C=C1CC2(CCC3(O)[C@H]4Cc5ccc(O)c6c5[C@@]3(CCN4CC3CC3)C2O6)OC1=O (stereo in doubt; 4a) | 0.8 |  |  | 
C=C1CC2(CCC3(O)[C@H]4Cc5ccc(O)c6c5[C@@]3(CCN4CC3CC3)C2O6)OC1=O (stereo in doubt; 5a) [listing 2 of 2 here] |  | 28% and 13% | 93 | 80
C=C1CC2(CCC3(O)[C@H]4Cc5ccc(O)c6c5[C@@]3(CCN4C)C2O6)OC1=O (stereo in doubt; 4b) | 7.6 |  |  | 
